# Assay results as given in patent US20030066100A1, “Capacitative calcium entry mechanism in porcine oocytes” (priority 2001, published 2003).
# “Also recorded” adds a separate entry of the source.
# Tests used:
# Type in all cases: cell-based
# [1] = test system: porcine oocytes; test: Ca2+ release by thapsigargin in Ca2+-free medium (fura-2 fluorescence)
# Method: (§1) The oocytes were loaded with the Ca^2+ indicator dye fura-2 by being incubated in the presence of 2 μM acetoxymethyl ester form of the dye and 0.02% pluronic F-127 (both from Molecular Probes, Inc., Eugene, Oreg.) for 40-50 minutes. After incubation the oocytes were rinsed, exposed to various treatments and the changes in the intracellular free Ca^2+ concentration ([Ca^2+]i) were followed using a Photoscan-2 photon counting fluorescent microscope system (Nikon Corp., Tokyo, Japan) as described by Macháty et al., Biol Reprod 1997a; 56:921-930. Fluorescence was recorded by calculating the ratio of fura-2 fluorescence at 510 mn excited by UV light alternatively at 340 and 380 nm. Intracellular free Ca^2+ levels are presented as fluorescent ratio values with ratios of 1.2 and 6.5 representing 65 and 602 nM Ca^2+, respectively.
# A Ca^2+ influx was generated in porcine oocytes by the depletion of the intracellular Ca^2+ stores. […] It is routinely used to drain the intracellular stores of their Ca^2+ content. Fura-2-loaded oocytes were incubated in Ca^2+-free HEPES-TL-PVA medium in the presence of 10-50 μM thapsigargin for 3 hours to deplete intracellular Ca^2+ stores. After washing in Ca^2+-free medium (to remove thapsigargin and ensure that the intracellular stores remain empty), normal Ca^2+-containing medium was added to the oocytes and the changes in the [Ca^2+]i were measured. […]
# [2] = test system: porcine oocytes; test: Capacitative Ca2+ entry after store depletion and re-addition of Ca2+ (fura-2 fluorescence)
# Method: as §1
# A Ca^2+ influx was generated in porcine oocytes by the depletion of the intracellular Ca^2+ stores. […] It is routinely used to drain the intracellular stores of their Ca^2+ content. Fura-2-loaded oocytes were incubated in Ca^2+-free HEPES-TL-PVA medium in the presence of 10-50 μM thapsigargin for 3 hours to deplete intracellular Ca^2+ stores. After washing in Ca^2+-free medium (to remove thapsigargin and ensure that the intracellular stores remain empty), normal Ca^2+-containing medium was added to the oocytes and the changes in the [Ca^2+]i were measured. Oocytes incubated in Ca^2+-free HEPES-TL-PVA for 3 hours without thapsigargin were used to show the Ca^2+ entry under normal conditions, when the intracellular Ca^2+ stores were full.
# [3] = test system: porcine oocytes; test: Capacitative Ca2+ entry in oocytes expressing Drosophila trp; conditions: 1 mM La3+
# Excerpt: The plasmid vector pBluescript KS, containing the Drosophila trp cDNA ctrp-9 downstream of the T7 promoter (a generous gift from C. Montell) was transfected into Escherichia coli DH5α cells. Plasmid DNA was isolated and linearized with the restriction endonuclease KpnI (Promega Corp., Madison, Wis.) and mRNA was transcribed from the cDNA with T7 polymerase using the RiboMAX™ Large Scale RNA Production System (Promega), following the manufacturer's recommendations. In order to produce capped RNA transcripts, the reaction was performed in the presence of 3 mM m^7G(5′)ppp(5′)G (Boehringer-Mannheim Corp., Indianapolis, Ind.). Purified RNA was precipitated with 0.3 M sodium acetate and ethanol. The pellet was resuspended in diethylpyrocarbonate (DEPC)-treated water containing RNasin (1 IU/μl; from Promega) to a final concentration of approximately 800 ng/μl and the samples were stored in 3 μl aliquots at −70° C.
# The Drosophila trp protein was expressed in porcine oocytes by injecting approximately 32 pg mRNA made by in vitro transcription of the cDNA and allowing 15 hours for translation. Control oocytes were injected with the carrier medium (DEPC-treated water). […] The baseline fluorescence of the oocytes was then recorded in Ca^2+-free HEPES-TL-PVA, and changes in [Ca^2+]i were measured for 20-30 minutes after the addition of Ca^2+-containing medium.
# [4] = test system: porcine oocytes; test: Divalent cation influx after InsP3 injection, Mn2+-quench technique
# Method: as §1
# To induce the release of Ca^2+ from the intracellular stores, the second messenger InsP3 was injected into the oocytes' cytoplasm using a microinjector (Narishige Co. Ltd., Tokyo, Japan). InsP3 was dissolved in carrier medium consisting of 10 mM Hepes and 100 μM EGTA buffered at pH 7.0. The amount injected was about 40 pl, which is 4% of the total cytoplasmic volume of ˜1000 pl. Microinjection was performed in HEPES-TL-PVA on a heated stage of a Nikon Diaphot inverted microscope (Nikon Corp., Tokyo, Japan).
# The onset of a divalent cation influx after a Ca^2+ transient was investigated by using the manganese (Mn^2+)-quench technique disclosed by Hallam et al., Biochem. J. 1988; 255:179-184. Release of Ca^2+ from the intracellular stores was stimulated by intracellular injection of approximately 40 pl of 2.5 μM InsP3, the InsP3 receptor agonist. As a Ca^2+ surrogate, Mn^2+ was added to the external medium. Mn^2+ was reported to be able to translocate across the plasma membrane, bind fura-2 and quench its fluorescence. This technique enables measurement of divalent cation influx even when Ca^2+ release from the internal stores is coincident. The entry of Mn^2+ into the cell was monitored by imaging the resulting quench in fura-2 fluorescence at 510 nm excited alternatively at 340 and 360 nm. While the signal resulting from the 340 nm excitation is [Ca^2+]i sensitive, at 360 nm fura-2 fluorescence is independent of [Ca^2+]i and any decrease in fluorescence is due only to Mn^2+ entry.
# [5] = 1 mM La3+, InsP3 microinjected, Mn2+ added
compound,measurement,setting,value
C/C=C(/C)C(=O)O[C@H]1C(C)=C2[C@H]([C@@H]1OC(=O)CCCCCCC)[C@@](C)(OC(C)=O)C[C@H](OC(=O)CCC)[C@@]1(O)[C@H]2OC(=O)[C@@]1(C)O [thapsigargin],change in [Ca2+]i,[1]; 10-50 μM thapsigargin in Ca2+-free medium,induced an increase in [Ca^2+]i
same,increase in [Ca2+]i relative to 50 μM,"[1]; 10 and 20 μM thapsigargin, Ca2+-free medium",slightly smaller increases in [Ca^2+]i
same,start of the increase in [Ca2+]i after adding the HEPES-TL-PVA medium,[2]; after thapsigargin store depletion,0 to 300 s
same,oocytes showing Ca2+ entry (rise in [Ca2+]i) after re-addition of Ca2+,[2]; stores emptied with thapsigargin for 3 hours in Ca2+-free medium,15 out of 18
"[La+3] [La^3+, lanthanum]",block of Ca2+ entry-evoked [Ca2+]i increase,[3],completely blocked
same,block of cation influx and decline in fluorescence at both wavelengths,[4]; [5],totally blocked
same,oocytes in which fluorescence intensities stayed near the resting values,[4]; [5],7/7
same,block of thapsigargin-evoked Ca2+ entry,[2]; 1 mM La3+,totally inhibited; also recorded: completely blocked
same,oocytes in which thapsigargin-evoked Ca2+ entry was blocked,[2]; 1 mM La3+,11/11
"O=P(O)(O)O[C@@H]1[C@H](O)[C@H](O)[C@@H](OP(=O)(O)O)[C@H](OP(=O)(O)O)[C@H]1O [InsP3, inositol 1,4,5-trisphosphate]",oocytes with rapid decline in fluorescence well below the basal value (Mn2+ entry),"[4]; InsP3 microinjected, 3 mM Mn2+ in the external medium",14/14
same,oocytes with transient elevation in fluorescence at 340 nm excitation (increase in [Ca2+]i),[4]; injection of about 40 pl of 2.5 μM InsP3,16 out of 16
